Patent US5177077A, “1,4-disubstituted piperazines” (Novo Nordisk A/S, priority 1990, dated 1993)
pIC50: −log10 of the molar value. Read-outs that look alike come from different tables or passages of the source.

What was measured:
[1] = tested on: motility of mice; assay: Test 2: increase of motility of mice (photocell crossings); type: in vivo, Male NMRI mice; settings: for ED50: Mus musculus, po, lowest ED50 determined at a 20 min interval during the 360 min test period, drugs administered orally
Method: The compounds were also tested for their ability to increase the motility of mice following intravenous administration using the method outlined below.
Male NMRI mice are used (20±2 g). The animals are housed 20-30 per cage under constant temperature (20°±1°) and relative humidity (40-60%). The animals are brought into the experimental room in the afternoon, the day before they undergo testing.
The experimentally-naive mice are acclimatized by being placed in a plexiglass box (WLH: 20×20×38 cm), four per box, for a 120 min period, and then treated with the test compound whereafter they are replaced in the plexiglass box.
The plexiglass box is equipped with a frame of photocells (spaced equidistantly) which are situated so as to detect locomotor behaviour of the animals (1 cm above the floor). The photocell chamber is housed in an sound-insulated, dimly-lit, ventilated chest. As a measure of exploratory behaviour, the number of photocell crossings in a 360 min period is detected using a minicomputer. Testing is made between 7:00 and 17.00 h.
Drugs are administered orally simultaneously with start of testing; N=4/dose; 4-5 doses of test drug is given in a volume of 10 ml/kg.
Computer programmed log-probit methods are used to generate an ED50 in mg/kg using as minimum the control result, and as maximum values are used 7700 (this latter value has been experimentally found as the maximum motility counts after d-amphetamine in a 20 min period).
The test result is the lowest ED50 value determined at a 20 min interval during the 360 min test period.

[2] = molecular target: T1, DA-uptake complex (Rattus norvegicus, UniProt P23977); assay: Test 1: inhibition of 3H-GBR 12935 binding to the DA-uptake complex in a striatal membrane preparation
T1 construct: in a striatal membrane preparation; from tissue; host or cells: striatal membranes
T1 sequence (P23977 whole entry, one chain of several): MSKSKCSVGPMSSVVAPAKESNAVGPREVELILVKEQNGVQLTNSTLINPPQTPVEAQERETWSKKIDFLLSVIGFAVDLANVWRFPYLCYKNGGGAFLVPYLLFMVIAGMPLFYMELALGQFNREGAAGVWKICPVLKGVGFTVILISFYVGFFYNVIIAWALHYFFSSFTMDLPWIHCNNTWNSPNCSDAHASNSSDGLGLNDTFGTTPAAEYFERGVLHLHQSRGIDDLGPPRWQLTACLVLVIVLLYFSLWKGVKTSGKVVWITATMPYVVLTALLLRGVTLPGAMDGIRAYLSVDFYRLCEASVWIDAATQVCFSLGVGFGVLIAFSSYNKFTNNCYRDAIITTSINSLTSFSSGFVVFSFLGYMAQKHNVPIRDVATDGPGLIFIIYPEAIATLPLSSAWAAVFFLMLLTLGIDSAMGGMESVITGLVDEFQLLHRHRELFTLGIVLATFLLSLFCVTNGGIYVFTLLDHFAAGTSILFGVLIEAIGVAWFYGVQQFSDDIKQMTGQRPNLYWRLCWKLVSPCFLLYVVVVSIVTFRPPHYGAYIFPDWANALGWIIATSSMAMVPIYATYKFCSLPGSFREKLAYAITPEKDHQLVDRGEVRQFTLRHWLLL
Method: The compounds were tested for their ability to inhibit the binding of 3H-GBR 12935 to the DA-uptake complex in a striatal membrane preparation following the method described by Andersen (Eur. J. Pharmacol. 166: 493-504, 1989).

SMILES | ED50 [1] [mg/kg] | pIC50 ([2]; striatal membrane preparation, method of Andersen 1989, read-out: Test 1 (inhibition of 3H-GBR 12935 binding)) | pIC50 [2] | maximum motility counts ([1]; in a 20 min period, used as maximum for the log-probit ED50)
Cc1ccsc1C(OCCN1CCN(CCCc2ccccc2)CC1)c1ccc(F)cc1 (stereo not shown) [Example 1] | 30 | 8.05 | – | –
Fc1ccc(C(OCCN2CCN(CC=Cc3ccco3)CC2)c2cccs2)cc1 (stereo not shown) [Example 2, 1-[2-((4-fluorophenyl)-(2-thienyl)methoxy)ethyl]-4-[3-(2-furyl)-2-propenyl]piperazine] | 17.4 | – | 8.33 | –
Fc1ccc(C(OCCN2CCN(CCCc3ccccc3)CC2)c2ccsc2)cc1 (stereo not shown) [Example 3, 1-[2-((4-fluorophenyl)-(3-thienyl)methoxy)ethyl]-4-(3-phenylpropyl)piperazine] | 32 | – | 8.43 | –
C[C@H](N)Cc1ccccc1 [d-amphetamine, reference compound] | – | – | – | 7700
